Measured values published in publication PMC11855827, “High-Throughput Screening of Five Compound Libraries for Anthelmintic Activity and Toxicity Leads to the Discovery of Two Flavonoid Compounds” (International Journal of Molecular Sciences, 2025).
Several values for one entry are separate records, joined by “and”; a condition that tells them apart may be missing. Equal entries are not always repeated. Where two headings read alike, the source gives them in different places.

Tested on: C. elegans
[1] = Table S2, C. elegans SS assay, 110 μM, 0 h, averages of 4 data points
[2] = Table S2, C. elegans SS assay, 110 μM, 24 h, averages of 4 data points

Row | Compound | Percentage of motility inhibition 0 h [1] | Percentage of motility inhibition 24 h [2] | Percentage of motility inhibition 0 h (110 µM) | Percentage of motility inhibition 24 h (110 µM)
1 | O=C(O[C@H]1[C@H](Oc2c(-c3ccc(O)c(O)c3)oc3cc(O)cc(O)c3c2=O)O[C@H](CO)[C@H](O)[C@@H]1O)c1cc(O)c(O)c(O)c1 [2"‐O‐Galloylhyperin] | 32% | 1% |  | 
2 | CC1(C)S[C@@H]2[C@H](NC(=O)[C@H](N)c3ccc(O)cc3)C(=O)N2[C@H]1C(=O)[O-].[Na+] [Amoxicillin (sodium)] | 29% | 10% |  | 
3 | COc1ccnc2[nH]cc(C(=O)C(=O)N3CCN(C(=O)c4ccccc4)C[C@H]3C)c12 [BMS‐378806] | 47% | 41% |  | 
4 | Rebaudioside B | 6% | 1% |  | 
5 | Evocarpine | 8% | 20% |  | 
6 | COc1cccc(OC)c1C(=O)N[C@@H]1C(=O)N2[C@@H]1SC(C)(C)[C@@H]2C(=O)[O-].[Na+] [Methicillin (sodium salt)] | 16% | 1% |  | 
7 | N[C@@H](CCl)C(=O)O [β‐Chloro‐L‐alanine] | 27% | 7% |  | 
8 | C=C[C@H]1CN2CC[C@H]1C[C@@H]2[C@@H](O)c1ccnc2ccc(OC)cc12.Cl.O [Quinidine hydrochloride monohydrate] | 40% | 6% |  | 
9 | CC1(C)CC[C@]2(C(=O)O)CC[C@]3(C)C(=CC[C@@H]4[C@@]5(C)CC[C@H](O[C@@H]6O[C@H](C(=O)O)[C@@H](O)[C@H](O)[C@H]6O)C(C)(C)[C@@H]5CC[C@]43C)[C@@H]2C1 [Calenduloside E] | 0% | 0% |  | 
10 | CC1(C)CC[C@]2(C(=O)O)[C@H](O)C[C@]3(C)C(=CC[C@@H]4[C@@]5(C)C[C@H](O)[C@H](O)C(CO)(CO)[C@@H]5CC[C@]43C)[C@@H]2C1 [Platicodigenin] | 0% | 0% |  | 
11 | CSCCC(=O)O [3‐(Methylthio)propionic acid] | 9% | 0% |  | 
12 | CN1[C@@H](CC(=O)c2ccccc2)CCC[C@H]1C[C@H](O)c1ccccc1.Cl [Lobeline (hydrochloride)] | 26% | 30% |  | 
13 | CCC(CC)O[C@@H]1C=C(C(=O)O)C[C@H](N)[C@H]1NC(C)=O [Oseltamivir (acid)] | 18% | 8% |  | 
14 | C[C@H](CCC(=O)[O-])[C@H]1CC[C@H]2[C@@H]3CC[C@@H]4C[C@H](O)CC[C@]4(C)[C@H]3C[C@H](O)[C@]12C.[Na+] [Deoxycholic acid sodium salt] | 0% | 26% |  | 
15 | CC(=O)OCC1=C(C(=O)[O-])N2C(=O)[C@@H](NC(=O)Cc3cccs3)[C@H]2SC1.[Na+] [Cephalothin (sodium)] | 9% | 11% |  | 
16 | CC(C)[C@H](N)C(=O)OCC(CO)OCn1cnc2c(=O)nc(N)[nH]c21.Cl (stereo partly shown) [Valganciclovir (hydrochloride)] | 9% | 0% |  | 
17 | CN1CC[C@]23c4ccccc4N[C@H]1[C@]21CCN(C)[C@H]3Nc2ccccc21 [Calycanthine] | 0% | 0% |  | 

Row | Compound | Percentage of motility inhibition 0 h [1] | Percentage of motility inhibition 24 h [2] | Percentage of motility inhibition 0 h (110 µM) | Percentage of motility inhibition 24 h (110 µM)
18 | CCn1cc(C(=O)O)c(=O)c2cc(F)c(N3CCN(C)CC3)cc21.CS(=O)(=O)O [Pefloxacin (mesylate)] | 9% | 8% |  | 
19 | C=C1C(=O)O[C@@H]2/C=C(/C)C(OC(C)=O)C/C=C(/C=O)CC(OC(=O)/C(C)=C/CO)[C@@H]12 (stereo partly shown) [Eupalinolide O] | 1% | 9% |  | 
20 | O=c1c(O[C@@H]2O[C@H](CO)[C@@H](O)[C@H](O)[C@H]2O)c(-c2ccc(O)c(O)c2)oc2cc(O[C@@H]3O[C@H](CO[C@@H]4O[C@H](CO)[C@@H](O)[C@H](O)[C@H]4O)[C@@H](O)[C@H](O)[C@H]3O)cc(O)c12 |  |  | 0% | 0%
21 | CC(=O)O[C@@]12CO[C@@H]1C[C@H](O)[C@@]1(C)C(=O)[C@H](O)C3=C(C)[C@@H](OC(=O)[C@H](O)[C@@H](NC(=O)c4ccccc4)c4ccccc4)C[C@@](O)([C@@H](OC(=O)c4ccccc4)[C@H]21)C3(C)C [10-Deacetyltaxol] | 17% | 0% |  | 
22 | CN[C@@H]1[C@@H](O)[C@@H](O[C@@H]2[C@@H](O)[C@H](O[C@H]3OC(CN)=CC[C@H]3N)[C@@H](N)C[C@H]2N)OC[C@]1(C)O.CN[C@@H]1[C@@H](O)[C@@H](O[C@@H]2[C@@H](O)[C@H](O[C@H]3OC(CN)=CC[C@H]3N)[C@@H](N)C[C@H]2N)OC[C@]1(C)O.O=S(=O)(O)O.O=S(=O)(O)O.O=S(=O)(O)O.O=S(=O)(O)O.O=S(=O)(O)O [Sisomicin (sulfate)] | 2% | 0% |  | 
23 | COc1cc(OC)c2c(=O)cc(-c3ccccc3)oc2c1 [5,7‐Dimethoxyflavone] | 37% | 15% |  | 
24 | C=C[C@H]1[C@H](O[C@@H]2O[C@H](CO)[C@@H](O)[C@H](O)[C@H]2OC(=O)c2c(O)cc(O)cc2-c2cccc(O)c2)OC=C2C(=O)OCC[C@]21O [Amaroswerin] | 0% | 0% |  | 
25 | CCN1C[C@]2(COC)[C@H](O)C[C@H](OC)[C@@]34[C@@H]5C[C@@]6(O)[C@H](OC(=O)c7ccccc7)[C@@H]5[C@@](O)([C@@H]([C@H](OC)[C@H]23)[C@@H]14)[C@@H](O)[C@@H]6OC [Benzoylaconine] | 2% | 0% |  | 
26 | C[n+]1cc2c3c(ccc2c2ccc4cc5c(cc4c21)OCO5)OCO3.[Cl-] [Sanguinarine (chloride)] |  | 20% and 27% |  | 
27 | CCCCCCCCCCCCCCCCCC(=O)NCc1ccccc1 [N‐Benzyloctadecanamide] | 35% | 17% |  | 
28 | CC(=O)[N-]S(=O)(=O)c1ccc(N)cc1.[Na+] [Sulfacetamide (Sodium)] | 33% | 6% |  | 
29 | CCO[C@H]1O[C@@H]2O[C@@]3(C)CC[C@H]4[C@H](C)CC[C@@H]([C@H]1C)[C@@]24OO3 [Artemotil] |  | 0% and 2% |  | 
30 | C=C1C(=O)O[C@@H]2/C=C(\C)[C@@H](OC(C)=O)C/C=C(\COC(C)=O)C[C@@H](OC(=O)/C(C)=C/CO)[C@@H]12 [Eupalinolide A] |  |  | 11% | 38%
31 | C=C1CC[C@H]2[C@@H](/C=C(\C)C(=O)[C@@]3(O)C[C@H](C)[C@H](O)[C@@H]3[C@@H]1O)C2(C)C [Lathyrol] | 1% | 3% |  | 
32 | C=C1CC23CC4[C@@H]5[C@@]6(C)C[C@H](OC(C)=O)C[C@]57C(N4C6)[C@@]2(O)C(OC(C)=O)[C@H]1[C@@H](O)[C@H]37 (stereo partly shown) [Guanfu base A] | 0% | 0% |  | 
33 | CNCC(O)c1ccc(O)cc1 (stereo not shown) [p‐Synephrine] | 13% | 0% |  | 
